Literature values as cited in patent publication US20110110985A1, “FUNCTIONALIZED NANOMATERIALS FOR CHELATION THERAPIES AND SORBENT DIALYSIS OF TOXINS” (priority 2009, published 2011).

Tests used:
[1] = given in the first 24 hours
[2] = given orally to rats
[3] = day of chelation vs one and two days prior to treatment

## O=C(O)CN(CCN(CC(=O)O)CC(=O)O)CCN(CC(=O)O)CC(=O)O [Ca-DTPA, diethylenetriaminepentaacetic acid]
[1]
  effectiveness relative to Zn-DTPA: 10 fold

## O=C(O)[C@@H](S)[C@@H](S)C(=O)O [DMSA, meso-2,3-dimercaptosuccinic acid]
[2]
  change of Ca and Zn in carcass, Fe and Cu in liver, kidney, or brain: did not significantly change

## O=C(O)CN(CCN(CC(=O)O)CC(=O)O)CC(=O)O [EDTA, ethylenediamine-tetraacetate]
[3]
  increase of urinary excretion of Ca: 2 fold
  increase of urinary excretion of Zn: 18 fold
